Measurements: patent US20230338370A1, “Treatment of Cancer with TOR Kinase Inhibitors” (Signal Pharmaceuticals, LLC, priority 2012, published 2023)

Assays:
Assay in all cases: Growth inhibition assay for Breast Cancer (BC) Cell lines
Assay type in all cases: cell-based
AU565 = conditions: Homo sapiens; AU565, Her2+; 96 hours, Cell Titer-Glo
Procedure: (§1) Growth inhibition assay for Breast Cancer (BC) Cell lines. Compounds 1 (a TOR kinase inhibitor set forth herein having molecular formula C16H16N8O) and 2 (a TOR kinase inhibitor set forth herein having molecular formula C17H18N8O2) were dissolved in dimethyl sulfoxide (DMSO) to prepare a 10 mM stock solution. A serial titration was performed to produce a working concentration range of 1.5 µM to 10 mM. Aliquots to produce final concentrations of 1.5 nM to 10 µM were spotted via an acoustic dispenser (EDC ATS-100) into an empty 384-well plate. Compounds 1 and 2 were spotted in a 10-point serial dilution fashion (3-fold dilution) in duplicate within the plate. The DMSO concentration was kept constant for a final assay concentration of 0.1% DMSO. Plates were replicated for use with different cell lines and testing periods. After compound plate replication, all plates were sealed (Agilent ThermoLoc) and stored at -20° C. for up to 1 month. […] When ready for testing, plates were removed from the freezer, thawed, and unsealed just prior to the addition of the test cells. Prior to testing, cells were grown and expanded in culture flasks to provide sufficient amounts of starting material. Cells were then diluted to the appropriate densities and added directly to the compound-spotted 384-well plates. Cells were allowed to grow for 96 hours at 37° C./5% CO2. At the time when compound was added (t0), initial cell number was assessed via a viability assay (Cell Titer-Glo) by quantifying the level of luminescence generated by ATP present in viable cells. After 96 hours, cell viability of compound-treated cells was assessed via Cell Titer-Glo and luminescence measurement. Cell lines were assayed for growth inhibition by Compounds 1 and 2 in at least 3 independent tests. A control cell line (the lung tumor cell line, A549) was included in each of the assays. The compound response against this control cell line was monitored closely to enable comparison of the data generated through the assay period. All data were normalized and presented as a percentage of the DMSO-treated cells. Results were then expressed as a GI50 value. The GI50 value corrects for the cell count at time zero.

BT-474 = conditions: Homo sapiens; BT-474, Her2+; 96 hours, Cell Titer-Glo
Procedure: as §1

BT-483 = conditions: Homo sapiens; BT-483, ER+/PR+; 96 hours, Cell Titer-Glo
Procedure: as §1

CAMA-1 = conditions: Homo sapiens; CAMA-1, ER+/PR+; 96 hours, Cell Titer-Glo
Procedure: as §1

EFM-192A = conditions: Her2+, 96 hours, Cell Titer-Glo
Procedure: as §1

EFM-19 = conditions: Homo sapiens; EFM-19, ER+/PR+; 96 hours, Cell Titer-Glo
Procedure: as §1

HCC1428 = conditions: Homo sapiens; HCC1428, ER+/PR+; 96 hours, Cell Titer-Glo
Procedure: as §1

HCC1500 = conditions: HCC1500, ER+/PR+; 96 hours, Cell Titer-Glo
Procedure: as §1

HCC1569 = conditions: Homo sapiens; HCC1569, Her2+; 96 hours, Cell Titer-Glo
Procedure: as §1

HCC1954 = conditions: Homo sapiens; HCC1954, Her2+; 96 hours, Cell Titer-Glo
Procedure: as §1

HCC202 = conditions: HCC202, Her2+; 96 hours, Cell Titer-Glo
Procedure: as §1

KPL-1 = conditions: KPL-1, ER+/PR+; 96 hours, Cell Titer-Glo
Procedure: as §1

MCF7 = conditions: Homo sapiens; MCF7, ER+/PR+; 96 hours, Cell Titer-Glo
Procedure: as §1

MDA-MB-134-VI = conditions: Homo sapiens, ER+/PR+, 96 hours, Cell Titer-Glo
Procedure: as §1

MDA-MB-175-VII = conditions: Homo sapiens, ER+/PR+, 96 hours, Cell Titer-Glo
Procedure: as §1

MDA-MB-361 = conditions: Homo sapiens; MDA-MB-361, Her2+; 96 hours, Cell Titer-Glo
Procedure: as §1

MDA-MB-415 = conditions: Homo sapiens; MDA-MB-415, ER+/PR+; 96 hours, Cell Titer-Glo
Procedure: as §1

MDA-MB-453 = conditions: Homo sapiens; MDA-MB-453, Her2+; 96 hours, Cell Titer-Glo
Procedure: as §1

SK-BR-3 = conditions: Homo sapiens; SK-BR-3, Her2+; 96 hours, Cell Titer-Glo
Procedure: as §1

T47D = conditions: Homo sapiens, ER+/PR+, 96 hours, Cell Titer-Glo
Procedure: as §1

UACC-812 = conditions: Homo sapiens; UACC-812, Her2+; 96 hours, Cell Titer-Glo
Procedure: as §1

ZR-75-1 = conditions: Homo sapiens; ZR-75-1, ER+/PR+; 96 hours, Cell Titer-Glo
Procedure: as §1

ZR-75-30 = conditions: Homo sapiens; ZR-75-30, Her2+; 96 hours, Cell Titer-Glo
Procedure: as §1

GI50 (AU565): 58.2 nM | GI50 (BT-474): 78.2 nM | GI50 (BT-483): 17.3 nM | GI50 (CAMA-1): 44.6 nM | GI50 (EFM-192A): 74.1 nM | GI50 (EFM-19): 21.1 nM | GI50 (HCC1428): 96.5 nM | GI50 (HCC1500): 24.6 nM | GI50 (HCC1569): 120 nM | GI50 (HCC1954): 73.3 nM | GI50 (HCC202): 8.9 nM | GI50 (KPL-1): 50.7 nM | GI50 (MCF7): 83.4 nM | GI50 (MDA-MB-134-VI): 69.5 nM | GI50 (MDA-MB-175-VII): 17 nM | GI50 (MDA-MB-361): 28.5 nM | GI50 (MDA-MB-415): 53.4 nM | GI50 (MDA-MB-453): 44.5 nM | GI50 (SK-BR-3): 66.8 nM | GI50 (T47D): 21.4 nM | GI50 (UACC-812): 32.1 nM | GI50 (ZR-75-1): 10.3 nM | GI50 (ZR-75-30): 18.8 nM
Structure (SMILES): COCCN1C(=O)CNc2ncc(-c3ccc(-c4nnc[nH]4)nc3C)nc21 [Compound 2, 1-(2-methoxyethyl)-7-(2-methyl-6-(4H-1,2,4-triazol-3-yl)pyridin-3-yl)-3,4-dihydropyrazino[2,3-b]pyrazin-2(1H)-one]
